Results reported in patent US9408828B2, “(+)-3′-angeloyloxy-4′-keto-3′,4′-dihydroseselin for treating inflammation” (Hong Kong Baptist University, priority 2014, dated 2016).
Converted amounts (≈) assume the structure as drawn.

Tests used:
IL-4 = experiment: ELISA of IL-4 in colon tissue, DSS-induced colitis; format: in vivo, C57BL/6 mice; settings: compared with the DSS treatment group; increase in IL-4
Experimental: (§1) Colon levels of cytokines are assayed using commercially available ELISA kits. Briefly, colon samples are homogenized in phosphate buffer containing 0.05% Tween-20, 0.1 mM phenylmethylsulfonyl fluoride, 0.1 mM benzethonium chloride, 10 mM EDTA, and 20 IU aprotinin A. The homogenates are centrifuged at 16000 g at 4° C. for 15 min, and the supernatants are collected for the determination of levels of the cytokines, IL-6, IL-4, TNF-α, and IFN-γ, according to the manufacturer's protocols. The amount of protein in each sample is measured by the Bradford method, using bovine serum albumin as a standard. The levels of each cytokine are evaluated in each sample and expressed in […].
(§2) Colitis is induced in all groups except the control group. Pd-Ib and sulfasalazine are administered to mice from day 6 to day 12. On day 13, the mice are sacrificed, Data are expressed as mean±SEM, n=8 (*p<0.05, **p<0.01, ***p<0.001, compared with DSS model group).

TNF-α = experiment: Real-time PCR of TNF-α mRNA in LPS-stimulated RAW-Blue cells; format: cell-based, murine; settings: LPS 1 μg/mL, 5, 10, 20 μg/mL, 20 hours
Experimental: After macrophages are treated with 1 μg/mL of LPS in absence or presence various concentrations of Pd-Ib (5, 10, 20 μg/mL) for 20 hours, the mRNA levels of iNOS (A), TNF-α (B) and IL-1β (C) are determined by real time PCR, while the production of NO (D) is determined by Griess reagent. Data are derived from three independent experiments and presented as mean±SEM, “con” stands for the vehicle control group. ^#Compared with control group. *P<0.05, **P<0.01 and ***P<0.001 are compared with LPS-alone group.
Raw-Blue cells are plated at 20×10^5 cells/well in 12-well plate. After 24 hours of incubation, cells are pretreated with various concentrations (5-20 μg/mL) of Pd-Ib for 2 hours, followed by co-culturing with LPS (1 μg/mL) for 20 hours. Total RNA of Raw-Blue cells is extracted by Trizol reagent. Two micrograms (2 μg) of total RNA are reverse-transcribed with RT master mix to obtain cDNA. Real-time PCR is performed in a ViiA7 real-time PCR instrument (Applied Biosystems, Life Technologies, CA, USA) with the SYBR Green kit. A melting curve analysis is carried out after amplification to verify the accuracy of the amplicon. The comparative cycle of threshold (ΔΔCT) method of relative quantification is used to determine the fold-change in expression. Primer sequences for mRNA analysis of IL-1β, TNF-α, iNOS and β-Actin are described in Table 1.

IFN-γ = experiment: ELISA of IFN-γ in colon tissue, DSS-induced colitis; format: in vivo, C57BL/6 mice; settings: compared with the DSS treatment group
Experimental: as §1, §2

NF-κB = experiment: Anti-inflammatory bioassay (Quanti-Blue assay), SEAP activity; format: cell-based, murine; settings: Mus musculus, Macrophage; LPS-stimulated macrophages; read-out: IC50, inhibition of SEAP activity
Experimental: RAW-Blue cells (5×10^4) are cultured in 96-well plate for 24 hours, and then treated with LPS (1 μg/mL) alone or together with test samples for 20 hours. Secreted embryonic alkaline phosphatase (SEAP) activity in the conditioned medium is determined using QUANTI-Blue medium following manufacturer's manual. Briefly, 100 μL samples are added to 200 μL of QUANTI-Blue medium and incubated at 37° C. for 15 to 30 minutes. Absorbance is measured at 620 nm using a micro-plate reader (Benchmark plus Bio-Red, CA, USA) and fold change in SEAP activity is calculated accordingly.
Raw-Blue cells are derived from RAW264.7 macrophages. Then the murine macrophage cell line of Raw-Blue cells is cultured in plastic dishes containing DMEM supplemented with 100 U/mL of penicillin, 100 μg/mL of streptomycin and 10% FBS in an incubator (5% CO2) at 37° C. Cells are sub-cultured every 3 days at a dilution of 1:6.
The SEAP activity in the supernatants of LPS-stimulated RAW-Blue cells reflects the activation of NF-κB. The inhibition of the NF-κB activation can associate with mitigation of colon inflammation responses and apoptosis of intestinal epithelial cells in DSS mouse model. Western blotting and immunofluorescence analysis are performed to determine whether Pd-Ib depressed NF-κB activation. […]

IκB-α = experiment: Western blot of IκB-α degradation in LPS-stimulated RAW-Blue cells; format: cell-based, murine; settings: LPS 1 μg/mL, Pd-Ib 5, 10, 20 μg/mL, 20 h; compared to LPS-stimulated macrophage
Experimental: Data are derived from three independent experiments and presented as mean±SEM. ^#Compared with control group. *P<0.05 is compared with LPS-alone group.
After Raw-Blue cells are treated with LPS and Pd-Ib, whole cell extract is prepared with lysis buffer [1% Triton X-100, 0.1% SDS, 0.5% deoxycholate, 1 mM EDTA, 20 mM Tris (pH 7.4), 150 mM NaCl, 10 mM NaF, 1 mM Na3VO4, 0.1 mM phenylmethylsulfonyl fluoride and one protease inhibitor cocktail tablet (Roche, USA)]. Total protein concentration is measured using a protein assay kit, followed by centrifugation at 13,500 rpm for 15 minutes at 4° C., then 10-25 μg of protein from the supernatants is then separated on 10% sodium dodecylsulphate-polyacrylamide gel (SDS-PAGE) and transferred on to polyvinylidene difluoride membranes. After blocking with 5% skim milk powder in Tris-buffered saline-Tween (TBST; 50 mM Tris, 150 mM NaCl, pH 7.4; 0.01% Tween-20) for 1 hour at room temperature, the membrane is then incubated with primary antibody (1:5,000 dilution) in 5% skim milk in TBST overnight at 4° C. […] The membrane is rewashed (TBST; 3×10 min), and the immune-reactive proteins are detected by enhanced chemiluminescence using X-ray film and ECL reagent. The protein bands are quantified by measuring the relative intensity compared to the control using Image J Software (version 4.1.7, NIH, USA).

IC50 (NF-κB): 22.5 µg/mL (≈ 65.8 µM)
Compound: C/C=C(\C)C(=O)OC1C(=O)c2c(ccc3ccc(=O)oc23)OC1(C)C (single isomer, unassigned; (+)) [Pd-Ib, (+)-3′-Angeloyloxy-4′-keto-3′,4′-dihydroseselin]
production of IL-4 in colon tissue (IL-4): significant effect on the production of IL-4 in a dose-dependent manner
mRNA expression of TNF-α (TNF-α): inhibit the mRNA expressions of TNF-α and IL-1β in a dose-dependent manner
production of IFN-γ in colon tissue (IFN-γ): greatly reduces the production
IκB-α degradation (IκB-α): inhibits IκB-α degradation in a dose-dependent manner
